Measurements: US12195428B2, “Charged ion channel blockers and methods for use” (Nocion Therapeutics, Inc., priority 2019, dated 2025)

Experiments:
[1] = target: T1, NaV1.7 (Homo sapiens, UniProt Q15858); test: Nav1.7 intracellular inhibition (internal block), whole cell patch clamp; format: cell-based; settings: % inhibition at 1 μM test concentration, compound in internal solution, 5 Hz stimulation
T1 construct: expressed in transfected cells; host or cells: unnamed tetracycline-inducible cell line, kept under hygromycin and blasticidin selection
T1 sequence (Q15858 whole entry): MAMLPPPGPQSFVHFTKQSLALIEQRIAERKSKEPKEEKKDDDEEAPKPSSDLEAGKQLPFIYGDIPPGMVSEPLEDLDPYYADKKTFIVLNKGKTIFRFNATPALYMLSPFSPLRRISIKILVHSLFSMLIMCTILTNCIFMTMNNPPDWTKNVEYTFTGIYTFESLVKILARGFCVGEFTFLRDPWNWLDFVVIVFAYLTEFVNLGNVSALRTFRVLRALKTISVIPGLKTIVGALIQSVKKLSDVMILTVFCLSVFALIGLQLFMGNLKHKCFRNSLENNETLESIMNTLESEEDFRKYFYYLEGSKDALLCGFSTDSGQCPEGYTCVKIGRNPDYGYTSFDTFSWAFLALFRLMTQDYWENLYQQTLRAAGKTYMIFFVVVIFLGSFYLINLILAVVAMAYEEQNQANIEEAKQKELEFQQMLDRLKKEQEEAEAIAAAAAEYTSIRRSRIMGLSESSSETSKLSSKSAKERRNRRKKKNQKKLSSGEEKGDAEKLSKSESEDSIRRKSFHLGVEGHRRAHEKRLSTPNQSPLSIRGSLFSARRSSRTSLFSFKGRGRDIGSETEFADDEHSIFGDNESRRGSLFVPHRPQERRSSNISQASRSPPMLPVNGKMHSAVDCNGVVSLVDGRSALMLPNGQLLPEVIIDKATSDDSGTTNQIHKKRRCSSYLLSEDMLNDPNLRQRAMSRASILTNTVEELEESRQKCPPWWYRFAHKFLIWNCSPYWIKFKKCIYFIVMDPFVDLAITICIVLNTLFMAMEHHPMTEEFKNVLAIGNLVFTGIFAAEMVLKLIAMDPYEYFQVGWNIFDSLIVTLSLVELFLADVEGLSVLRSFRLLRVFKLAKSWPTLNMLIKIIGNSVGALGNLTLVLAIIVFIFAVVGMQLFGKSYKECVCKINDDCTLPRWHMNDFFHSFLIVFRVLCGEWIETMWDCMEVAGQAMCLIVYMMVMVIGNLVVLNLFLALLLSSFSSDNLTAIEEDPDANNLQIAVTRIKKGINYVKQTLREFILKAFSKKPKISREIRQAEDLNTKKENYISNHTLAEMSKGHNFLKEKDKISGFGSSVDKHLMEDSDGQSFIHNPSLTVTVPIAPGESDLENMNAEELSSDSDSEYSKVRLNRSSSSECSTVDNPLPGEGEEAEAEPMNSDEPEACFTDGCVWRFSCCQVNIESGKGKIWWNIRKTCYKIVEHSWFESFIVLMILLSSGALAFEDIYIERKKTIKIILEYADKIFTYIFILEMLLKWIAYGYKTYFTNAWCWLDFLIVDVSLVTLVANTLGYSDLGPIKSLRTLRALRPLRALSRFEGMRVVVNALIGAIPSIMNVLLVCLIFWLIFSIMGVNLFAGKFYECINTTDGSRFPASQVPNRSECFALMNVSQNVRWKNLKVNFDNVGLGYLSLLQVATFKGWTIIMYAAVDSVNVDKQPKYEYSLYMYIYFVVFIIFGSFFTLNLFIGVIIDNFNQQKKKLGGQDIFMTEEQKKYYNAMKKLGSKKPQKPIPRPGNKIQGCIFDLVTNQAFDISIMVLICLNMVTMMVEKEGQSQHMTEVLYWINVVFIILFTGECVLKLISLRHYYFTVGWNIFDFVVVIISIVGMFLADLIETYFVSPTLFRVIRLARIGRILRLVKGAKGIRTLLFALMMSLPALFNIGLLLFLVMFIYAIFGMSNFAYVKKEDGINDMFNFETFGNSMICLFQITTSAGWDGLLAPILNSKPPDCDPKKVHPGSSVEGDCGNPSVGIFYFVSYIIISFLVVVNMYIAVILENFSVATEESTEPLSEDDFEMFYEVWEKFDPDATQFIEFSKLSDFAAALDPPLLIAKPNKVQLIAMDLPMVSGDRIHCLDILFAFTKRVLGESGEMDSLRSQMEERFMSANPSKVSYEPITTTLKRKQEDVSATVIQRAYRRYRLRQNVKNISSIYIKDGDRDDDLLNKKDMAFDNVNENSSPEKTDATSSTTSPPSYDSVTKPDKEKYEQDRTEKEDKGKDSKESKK
Method: (§1) Representative compounds of the invention were synthesized according to the described methods and tested for the ability to inhibit voltage-gated sodium channels.
(§2) NaV1.7 was expressed upon induction with tetracycline. Cells were cultured in DMEM containing 10% dialyzed Fetal Bovine Serum (VWR, Radnor, PA), 1% Glutamax (VWR, Radnor, PA), 1% Penicillin-Streptomycin (VWR, Radnor, PA), 100 mg/L Hygromycin (Thermo Fisher Scientific, Waltham, MA and 5 mg/L Blasticidin (Alfa Aesar, Haverhill, MA). Cells were grown and maintained at 37° C. in a humidified environment containing 10% CO2 in air. Cells were detached from the culture flask for passage and harvested using 0.05% Trypsin-EDTA (Thermo Fisher Scientific, Waltham, MA). To induce NaV1.7, cells were induced with tetracycline ([…], IBI Scientific, Peosta, IA) the day before recording and plated onto 24-well plates. Cells were washed with DPBS (VWR, Radnor, PA), trypsinized and then triturated five times in 10 mL of growth media to break apart cell aggregates. For one 24-well plate, 2 mL of cell suspension was mixed with 23 mL of fresh growth media and […] tetracycline added. 1 ml of mixed media with cells was then added to each well of a 24-well plate, with a 12 mm coverslip already placed in the bottom of the well. Cells were then incubated in 37° C. and 10% CO2 overnight.
(§3) The intracellular solution contained the following (in mM) CsCl 135, NaCl 10, EGTA 10, HEPES 10, MgCl2 2, adjusted to pH 7.2 with CsOH. The external solution was a normal Ringer solution containing (in mM) NaCl 155, HEPES 10, glucose 10, KCl 3.5, CaCl2) 1.5, MgCl2 1 adjusted to pH 7.4 with NaOH. CsCl is from Alfa Aesar, Haverhill, MA. All other chemicals are from Sigma-Aldrich, St. Louis, MO. In order to test the degree of internal block by test compounds the compounds were dissolved in internal solution at the indicated test concentration. […] In order to test the degree of external block by test compounds the compounds were dissolved in external solution at the indicated test concentration.
(§4) 18-24 hours after cells were induced with tetracycline, coverslips were placed into a chamber filled with Normal Ringer solution at room temperature and the chamber placed on a microscope. Pipettes were pulled from borosilicate glass on a P97 puller (Sutter Instrument, Novato, CA) and polished with a MF-830 Microforge (Narishige International USA, Inc, Amityville, NY) to have a resistance of 1.5-2.5 MΩ when filled with CsCl internal solution at room temperature. Healthy cells (those that are round and translucent with no visible blemishes) were chosen for seal formation. A seal was formed between the pipette and the cell, and a brief pulse of suction was used to “break in” and establish the whole-cell configuration. The membrane potential was held at −100 mV before the voltage protocol began. Only cells with series resistance between 1.5-5 MΩ were retained for analysis. The voltage protocol was as follows: Cells were held at −100 mV for 12 ms followed by a hyperpolarizing step to −105 mV for 12 ms to monitor the leak. Cells were then stepped back to −100 mV for 40 ms. Cells were then depolarized to −20 mV for 10 ms and then returned to −100 mV for 26 ms.
Once the recording was started, the voltage protocol was run at 30 second intervals for 5 minutes to get a stable baseline. This was followed by four 30-second periods of 5 Hz stimulation of the same voltage protocol separated by 1 minute of rest which was then followed by 0.33 Hz stimulation after the last train. Currents were recorded using PatchMaster software with Heka EPC10 (HEKA Electronics, Lambrecht, Germany). Only cells with inward current amplitudes at −20 mV between 400 pA and 4 nA were accepted. In addition, cells having leak currents greater than 10% of their current amplitudes were discarded. […]

[2] = PAMPA membrane permeability assay; format: in vitro ADME; settings: pH 7.4 buffer, GIT lipid, 4 hours incubation
Method: The PAMPA assay (pION, Inc., Woburn MA) was used to determine the ability of compounds of the invention to cross an artificial lipid membrane by passive diffusion. Test compounds were dissolved in DMSO (10 mM) and diluted 200-fold in buffer (pION Inc., pH 7.4) to provide 50 uM stock solutions. Buffer (150 μL) was added to a UV blank plate and stock solutions (150 μL) were transferred to a UV reference plate. The blank and reference spectrum were read using a spectrophotometer. Stock solutions (200 μL) were added to the donor plate of the PAMPA sandwich plate and an accept plate painted with GIT lipid (pION Inc, 5 μL) was placed on top. Buffer (200 μL) was added to the acceptor plate and the PAMPA sandwich plate was incubated for 4 hours. Aliquots (150 μL) from the acceptor plate were added to a UV plate and read as acceptor spectrum. Aliquots (150 μL) of the donor solutions were added to a UV analysis plate and read as donor spectrum. The permeability coefficient of test compounds was calculated using PAMPA Explorer™ software (version 3.5.0.4) based on the AUC of the reference plate, the donor plate, and the acceptor plate.

[3] = target: T1, NaV1.7; test: Nav1.7 extracellular inhibition (external block), whole cell patch clamp; format: cell-based; settings: compound in external solution for 5 minutes, 5 Hz stimulation; for inhibition at 10 µM: % inhibition at 10 μM test concentration; for inhibition at 30 µM: % inhibition at 30 μM test concentration
Method: as §1, §2, §3, §4
Once the recording was started, the voltage protocol was run at 30 second intervals for 5 minutes to get a stable baseline. […] Currents were recorded using PatchMaster software with Heka EPC10 (HEKA Electronics, Lambrecht, Germany). […]

Row | Compound | inhibition at 1 µM [1] [%] | PAMPA (10^−6 cm/s) [2] | inhibition at 10 µM [3] [%] | inhibition at 30 µM [3] [%]
1 | CC[N+]1(CC(=O)Nc2c(C)cccc2C)CCCC(c2ccccc2)C1 (stereo not drawn) [Compound 1A, 1-(2-((2,6-dimethylphenyl)amino)-2-oxoethyl)-1-ethyl-3-phenylpiperidin-1-ium iodide] | > 90 |  |  | 
2 | CCC[N+]1(CC(=O)Nc2c(C)cccc2C)CCCCC1c1ccccc1 (stereo not drawn) [Compound 10A] | 30 to 70 |  |  | 
3 | COC(=O)C[N+]1(CC(=O)Nc2c(C)cccc2C)CCCCC1c1ccccc1 (stereo not drawn) [Compound 9A] | 30 to 70 | + (“+” (<0.1 10^−6 cm/s)) |  | 
4 | CC[N+]1(CC(=O)Nc2c(C)cccc2C)CCC[C@@H](c2ccccc2)C1.[I-] (stereo partly drawn) [Compound 2A] | > 90 | + (“+” (<0.1 10^−6 cm/s)) | < 30 | 
5 | CC[N+]1(CC(=O)Nc2c(C)cccc2C)CCC[C@H](c2ccccc2)C1.[I-] (stereo partly drawn) [Compound 3A] | > 90 | + (“+” (<0.1 10^−6 cm/s)) | 30 to 70 | 
6 | Cc1cccc(C)c1NC(=O)C[N+]1(C)CCCCC1c1ccccc1.[I-] (stereo not drawn) [Compound 8A] | 30 to 70 | + (“+” (<0.1 10^−6 cm/s)) |  | 30 to 70
7 | CC[N+]1(CC(=O)Nc2c(C)cccc2C)CCCCC1c1ccccc1 (stereo not drawn) [Compound 5A] | 70 to 90 | + (“+” (<0.1 10^−6 cm/s)) |  | 30 to 70
8 | Cc1cccc(C)c1NC(=O)C[N+]1(C)CCCC(c2ccccc2)C1.[I-] (stereo not drawn) [Compound 4A] | 70 to 90 | + (“+” (<0.1 10^−6 cm/s)) |  | 
9 | CCC[N+]1(CC(=O)Nc2c(C)cccc2C)CCCC(c2ccccc2)C1 (stereo not drawn) [Compound 6A] | > 90 | + (“+” (<0.1 10^−6 cm/s)) | 30 to 70 | 
